Results as given in publication PMC10257182, “Discovery of senolytics using machine learning” (Nature Communications, 2023).
Like-named read-outs stand apart in the source and are kept apart here.

Tests used:
Assay type in all cases: cell-based, human
[1] = system: non-senescent control IMR90 ER:RAS cells; experiment: Nuclei count (Hoechst, high content imaging) senolytic assay, OIS model, non-senescent control cells; settings: Homo sapiens; for viability at 4.677 µM: log (dose) [M] -5.33, 72 h; for viability at 2.188 µM: log (dose) [M] -5.66, 72 h; for viability at 0.2188 µM: log (dose) [M] -6.66, 72 h; for viability at 0.02188 µM: log (dose) [M] -7.66, 72 h; for viability at 4.68 µM: log (dose) [M] -5.33; for viability at 2.19 µM: log (dose) [M] -5.66; for viability at 0.219 µM: log (dose) [M] -6.66
Procedure, shortened: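 Cells seeded, left 24 h, then dosed across a 10-point […] series (10 μM down to 10 nM) with DMSO control. After 72 h, wells were fixed, permeabilised and stained with Hoechst. Nuclei were counted by high-content imaging in senescent and non-senescent IMR90 ER:RAS cultures.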

[2] = system: non-senescent control A549 cells; experiment: Nuclei count senolytic assay, TIS model, non-senescent control cells; settings: Homo sapiens, A549, Control cells, mean, read-out: Mean % Cell Survival; for viability at 10 µM: log (dose) [M] -5; for viability at 4.68 µM: log (dose) [M] -5.33; for viability at 2.19 µM: log (dose) [M] -5.66; for viability at 1 µM: log (dose) [M] -6; for viability at 0.468 µM: log (dose) [M] -6.33; for viability at 0.219 µM: log (dose) [M] -6.66; for viability at 0.1 µM: log (dose) [M] -7; for viability at 0.0468 µM: log (dose) [M] -7.33; for viability at 0.0219 µM: log (dose) [M] -7.66; for viability at 0.01 µM: log (dose) [M] -8
Procedure, shortened: (§1)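 Senescence in A549 cells is induced by 48 h of 100 μM etoposide followed by three days without drug, alongside non-senescent controls. Cells are seeded, rested 24 h, then exposed 72 h to compounds (10 nM–10 μM final, […] steps, triplicate) before nuclei are counted by imaging.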

[3] = system: senescent A549 cells (etoposide-induced); experiment: Nuclei count senolytic assay, therapy-induced senescence (TIS) model, senescent cells; settings: Homo sapiens, A549, Senescent cells, mean, read-out: Mean % Cell Survival; for viability at 10 µM: log (dose) [M] -5; for viability at 4.68 µM: log (dose) [M] -5.33; for viability at 2.19 µM: log (dose) [M] -5.66; for viability at 1 µM: log (dose) [M] -6; for viability at 0.468 µM: log (dose) [M] -6.33; for viability at 0.219 µM: log (dose) [M] -6.66; for viability at 0.1 µM: log (dose) [M] -7; for viability at 0.0468 µM: log (dose) [M] -7.33; for viability at 0.0219 µM: log (dose) [M] -7.66; for viability at 0.01 µM: log (dose) [M] -8
Procedure, shortened: as §1

[4] = IMR-90, 72 h, Control, log (dose) [M] -5, 72 h, mean n=3 (Fig 3C), read-out: Mean % Cell Survival
[5] = IMR-90, 72 h, Control, mean n=3 (Fig 3C), read-out: Mean % Cell Survival
[6] = IMR-90, 72 h, Control, log (dose) [M] -6, 72 h, mean n=3 (Fig 3C), read-out: Mean % Cell Survival
[7] = IMR-90, 72 h, Control, log (dose) [M] -6.33, 72 h, mean n=3 (Fig 3C), read-out: Mean % Cell Survival
[8] = IMR-90, 72 h, Control, log (dose) [M] -7, 72 h, mean n=3 (Fig 3C), read-out: Mean % Cell Survival
[9] = IMR-90, 72 h, Control, log (dose) [M] -7.33, 72 h, mean n=3 (Fig 3C), read-out: Mean % Cell Survival
[10] = IMR-90, 72 h, Control, log (dose) [M] -8, 72 h, mean n=3 (Fig 3C), read-out: Mean % Cell Survival
[11] = IMR-90, Control, read-out: % Cell Survival
[12] = IMR-90, Control, log (dose) [M] -6, read-out: % Cell Survival
[13] = IMR-90, Control, log (dose) [M] -6.33, read-out: % Cell Survival
[14] = IMR-90, Control, log (dose) [M] -7, read-out: % Cell Survival
[15] = IMR-90, Control, log (dose) [M] -8, read-out: % Cell Survival

| Compound | viability at 10 µM [1, 4] [%] | viability at 4.677 µM [1, 5] [%] | viability at 2.188 µM [1, 5] [%] | viability at 1 µM [1, 6] [%] | viability at 0.4677 µM [1, 7] [%] | viability at 0.2188 µM [1, 5] [%] | viability at 0.1 µM [1, 8] [%] | viability at 0.04677 µM [1, 9] [%] | viability at 0.02188 µM [1, 5] [%] | viability at 0.01 µM [1, 10] [%] | viability at 4.68 µM [1, 11] [%] | viability at 2.19 µM [1, 11] [%] | viability at 1 µM [1, 12] [%] | viability at 0.468 µM [1, 13] [%] | viability at 0.219 µM [1, 11] [%] | viability at 0.1 µM [1, 14] [%] | viability at 0.01 µM [1, 15] [%] | viability at 10 µM [2] [%] | viability at 4.68 µM [2] [%] | viability at 2.19 µM [2] [%] | other results |
| --- | --- | --- | --- | --- | --- | --- | --- | --- | --- | --- | --- | --- | --- | --- | --- | --- | --- | --- | --- | --- | --- |
| O=c1oc2c(O)c(O)cc3c(=O)oc4c(O)c(O)cc1c4c23 [Ellagic acid, ellagic acid] | 108 | 92.9 | 111 | 105 | 109 | 111 | 102 | 107 | 112 | 104 | 122 | 120 | 123 | 120 | 122 | 130 | 115 | 90.6 | 76.6 | 114 | viability at 0.4677 µM ([1]; IMR-90, Control cells, log (dose) [M] -6.33, individual replicates, SUP FIG 4C, read-out: % Cell Survival): 118%; viability at 0.1 µM ([1]; IMR-90, Control cells, log (dose) [M] -7, individual replicates, SUP FIG 4C, read-out: % Cell Survival): 103%; viability at 10 µM ([1]; IMR-90, Control, log (dose) [M] -5, read-out: % Cell Survival): 133%; viability at 1 µM [2]: 78.9%; viability at 0.468 µM [2]: 39.9%; viability at 0.219 µM [2]: 77.2%; viability at 0.1 µM [2]: 65.1%; viability at 0.0468 µM [2]: 99%; viability at 0.0219 µM [2]: 94.5%; viability at 0.01 µM [2]: 109%; viability at 10 µM [3]: 187%; viability at 4.68 µM [3]: 175%; viability at 2.19 µM [3]: 203%; viability at 1 µM [3]: 186%; viability at 0.468 µM [3]: 193%; viability at 0.219 µM [3]: 167%; viability at 0.1 µM [3]: 209%; viability at 0.0468 µM [3]: 241%; viability at 0.0219 µM [3]: 81.3%; viability at 0.01 µM [3]: 84.4% |
| CO[C@H]1C[C@@H]2CC[C@@H](C)[C@@](O)(O2)C(=O)C(=O)N2CCCC[C@H]2C(=O)O[C@H]([C@H](C)C[C@@H]2CC[C@@H](OCCO)[C@H](OC)C2)CC(=O)[C@H](C)/C=C(\C)[C@@H](O)[C@@H](OC)C(=O)[C@H](C)C[C@H](C)/C=C/C=C/C=C/1C [Everolimus, everolimus, reference compound] | 107 | 109 | 107 | 104 | 105 | 100 | 109 | 105 | 102 | 104 | 107 | 108 | 106 | 92.7 | 109 | 105 | 118 | 106 | 103 | 103 | viability at 0.04677 µM ([1]; IMR-90, Control, log (dose) [M] -7.33, read-out: % Cell Survival): 116%; viability at 0.0219 µM ([1]; IMR-90, Control, log (dose) [M] -7.66, read-out: % Cell Survival): 115%; viability at 1 µM [2]: 102%; viability at 0.468 µM [2]: 67.5%; viability at 0.219 µM [2]: 103%; viability at 0.1 µM [2]: 102%; viability at 0.0468 µM [2]: 106%; viability at 0.0219 µM [2]: 105%; viability at 0.01 µM [2]: 108%; viability at 10 µM [3]: 71.7%; viability at 4.68 µM [3]: 84.3%; viability at 2.19 µM [3]: 79.6%; viability at 1 µM [3]: 66.9%; viability at 0.468 µM [3]: 72.1%; viability at 0.219 µM [3]: 74.4%; viability at 0.1 µM [3]: 76.2%; viability at 0.0468 µM [3]: 85.6%; viability at 0.0219 µM [3]: 95%; viability at 0.01 µM [3]: 94.7% |
